Assay results reported in patent US11976054B2, “Amide derivative and preparation method therefore and use thereof in medicine” (Chengdu Baiyu Pharmaceutical Co., Ltd., priority 2019, dated 2024).

How the values were obtained:
[1] = system: Human monocyte cell line THP-1; assay: Detection of THP-1 cell pyroptosis (Caspase-Glo 1 Inflammasome Assay); assay type: cell-based; conditions: 20 nM PMA 48 h, 1 μg/mL LPS, compound 3 h
Experimental: Human monocyte cell line THP-1 (ATCC® TB-202TM) was cultured in RPMI-1640 culture medium containing […], 1 mM pyruvic acid, 0.05 mM β-mercaptoethanol and 10% double antibody under the culture conditions of 37° C. and […].
Cell counting was performed, THP-1 cells were seeded into a 96-well plate at 50000 per well, and 20 nM PMA was added for inducing at 37° C./5% CO2 for 48 h. The culture medium was then discarded, and 100 μL of serum-free RPMI-1640 medium containing 1 μg/mL LPS was added. 5 μL of compound or solvent control was added and 3-fold diluted in gradient from a maximum concentration of 10 μM, and 10 gradient concentrations were set. The mixtures were incubated at 37° C./5% CO2 for 3 h. After the incubation, the mixtures were centrifuged at 300 g for 5 min, and the culture medium was discarded. Pyroptosis assay was performed according to specific steps described in instructions of Caspase-Glo® 1 Inflammasome Assay kit. IC50 was calculated using GraphPad Prism7.0 software.

[2] = Pharmacokinetic analysis of compounds in rats; assay type: in vivo, SD rats; conditions: for F %: po 10 mg/kg vs iv 1 mg/kg
Experimental: Healthy adult SD rats weighing 180-220 g were fasted (free access to water) overnight and divided into tail vein administration group and intragastric administration group. The tail vein administration group was subjected to blood collection of 0.1 mL from orbital venous plexus before the administration and 5 min, 15 min, 0.5 h, 1 h, 2 h, 4 h, 8 h, 12 h and 24 h after the administration, and plasma was separated out by centrifugation at 4° C. for 5 min and stored at −20° C. for test. The intragastric administration group was subjected to blood collection of 0.1 mL from orbital venous plexus before the administration and 5 min, 15 min, 0.5 h, 1 h, 2 h, 4 h, 8 h, 12 h and 24 h after the administration, and the subsequent treatment procedures were the same as those of the tail vein injection group. The concentration of parent drug in the plasma was determined by LC-MS/MS.

[3] = system: IL-1β release in human PBMCs; assay: Assay of IL-1β release in human PBMCs; assay type: cell-based; conditions: PBMC, 10 ng/mL LPS 3 h, compound 0.5 h, 5 mM ATP 1 h, ELISA
Experimental: 5 mL of human venous whole blood from a healthy donor was placed in a Li-heparin tube. PBMCs were isolated and incubated in a culture medium containing 10 ng/mL LPS at 37° C./5% CO2 for 3 h. Cells were plated in a 96-well plate at 50 μL per well. 25 μL of compound or solvent control was added to each well and 3-fold diluted in gradient from a maximum concentration of 10 μM, and 8 gradient concentrations were set. The mixtures were incubated for 0.5 h. 25 μL of ATP at a final concentration of 5 mM was added to each well, and the resulting mixtures were incubated for 1 h. After the incubation, the mixtures were centrifuged at 1500 rpm for 20 min, and the supernatant was collected to detect the expression level of […] by ELISA (BD, Human IL-1β ELISA Set II, Cat #557953). IC50 was calculated using GraphPad Prism7.0 software. The results are shown in Table 2, which indicate that: the compounds disclosed herein down-regulate release of mature IL-1β by inhibiting the activity of Caspase-1, and the IC50 is <50 nM.

[4] = SD rats, iv (tail vein), 1 mg/kg, plasma
[5] = SD rats, po (intragastric), 10 mg/kg, plasma
[6] = Homo sapiens, THP-1, THP-1 pyroptosis

SMILES: C[C@@H](c1ccc2c(c1NC(=O)NS(=N)(=O)c1cc(C(C)(C)O)co1)CC2)C1CC1 (mixture of isomers) [Compound 38-1, RS- and SS-N-((3-((R)-1-cyclopropylethyl)bicyclo[4.2.0]octa-1(6),2,4-trien-2-yl)carbamoyl)-4-(2-hydroxypropan-2-yl)furan-2-sulfonimidamide]
- IC50 ([1]; THP-1 pyroptosis): ≤ 100 nM
- AUC [2, 4]: 2112 ng·h/mL
- Cl [2, 4]: 8.2 mL/min/kg
- Vss [2, 4]: 0.679 L/kg
- t1/2 [2, 4]: 2.2 h
- F % ([2]; SD rats): 184%
- AUC [2, 5]: 38823 ng·h/mL
- Cmax [2, 5]: 13267 ng/mL
- t1/2 [2, 5]: 3.1 h

SMILES: CC(c1cc(F)c2c(c1NC(=O)NS(=O)(=O)c1cc(C(C)(C)O)co1)CCC2)C1CC1 (stereo not shown) [Compound 9, N-((5-(1-cyclopropylethyl)-7-fluoro-2,3-dihydro-1H-inden-4-yl)carbamoyl)-4-(2-hydroxypropan-2-yl)furan-2-sulfonamide]
- IC50 [3]: 25.6 nM

SMILES: C[C@@H](c1ccc2c(c1NC(=O)NS(=N)(=O)c1cc(C(C)(C)O)co1)CCC2)C1CC1 (mixture of isomers) [Compound 6-2, (RS, RC)- and (SS, RC)-N-((5-(-1-cyclopropylethyl)-2,3-dihydro-1H-inden-4-yl)carbamoyl)-4-(2-hydroxypropan-2-yl)furan-2-sulfonimidamide]
- IC50 ([1]; THP-1 pyroptosis): 100 to 500 nM
- AUC [2, 4]: 1657 ng·h/mL
- Cl [2, 4]: 10.2 mL/min/kg
- Vss [2, 4]: 0.781 L/kg
- t1/2 [2, 4]: 1.5 h
- F % ([2]; SD rats): 65.9%
- AUC [2, 5]: 10920 ng·h/mL
- Cmax [2, 5]: 4073 ng/mL
- t1/2 [2, 5]: 2.8 h

SMILES: CC(C)(O)c1coc(S(=N)(=O)NC(=O)Nc2c(CC3CCC3)ccc3c2CCC3)c1 (single isomer, unassigned) [Compound 18-1, RS- and SS-N-((5-(cyclobutylmethyl)-2,3-dihydro-1H-inden-4-yl)carbamoyl)-4-(2-hydroxypropan-2-yl)furan-2-sulfonimidamide]
- IC50 ([1]; THP-1 pyroptosis): 500 to 1000 nM
- AUC ([2]; rat, in vivo, iv, 1 mg/kg): 2226 ng·h/mL
- Cl ([2]; rat, in vivo, iv, 1 mg/kg): 7.59 mL/min/kg
- Vss ([2]; rat, in vivo, iv, 1 mg/kg): 0.845 L/kg
- t1/2 ([2]; rat, in vivo, iv, 1 mg/kg): 2.2 h
- AUC ([2]; rat, in vivo, po, 10 mg/kg): 20153 ng·h/mL
- Cmax ([2]; rat, in vivo, po, 10 mg/kg): 9867 ng/mL
- t1/2 ([2]; rat, in vivo, po, 10 mg/kg): 2.9 h

SMILES: CC(c1ccc2c(c1NC(=O)NS(=N)(=O)c1cc(C(C)(C)O)co1)CC2)C1CC1 (racemic) [Compound 36-1, (RS, SC)- and (SS, SC)-N-((3-(1-cyclopropylethyl)bicyclo[4.2.0]octa-1(6),2,4-trien-2-yl)carbamoyl)-4-(2-hydroxypropan-2-yl)furan-2-sulfonimidamide]
- IC50 ([1]; THP-1 pyroptosis): ≤ 100 nM
- AUC [2, 4]: 14614 ng·h/mL
- Cl [2, 4]: 1.3 mL/min/kg
- Vss [2, 4]: 0.22 L/kg
- t1/2 [2, 4]: 3.9 h
- F % ([2]; SD rats): 98.5%
- AUC [2, 5]: 143938 ng·h/mL
- Cmax [2, 5]: 33467 ng/mL
- t1/2 [2, 5]: 2.9 h

SMILES: C[C@@H](c1ccc2c(c1NC(=O)NS(=N)(=O)c1cc(C(C)(C)O)co1)CCC2)C1CCC1 (mixture of isomers) [Compound 80-1, (RS)- and (SS)-N-((5-((R)-1-cyclobutylethyl)-2,3-dihydro-1H-inden-4-yl)carbamoyl)-4-(2-hydroxypropan-2-yl)furan-2-sulfonimidamide]
- IC50 ([1]; THP-1 pyroptosis): 100 to 500 nM

SMILES: C=C(c1c(C)cc2c(c1NC(=O)NS(=O)(=O)c1cc(C(C)(C)O)co1)CCC2)C1CC1 [Compound 40, N-((5-(1-cyclopropylvinyl)-6-methyl-2,3-dihydro-1H-inden-4-yl)carbamoyl)-4-(2-hydroxypropan-2-yl)furan-2-sulfonamide]
- IC50 [1, 6]: 1000 to 5000 nM

SMILES: CC(C)(O)c1coc(S(=O)(=O)NC(=O)Nc2c(CC3CCC3)ccc3c2CC3)c1 [Compound 33, N-((3-(cyclobutylmethyl)bicyclo[4.2.0]octa-1(6),2,4-trien-2-yl)carbamoyl)-4-(2-hydroxypropan-2-yl)furan-2-sulfonamide]
- IC50 [1, 6]: 100 to 500 nM

SMILES: Cc1ccc(S(=N)(=O)NC(=O)Nc2c(C(C)C)cccc2C(C)C)cc1 (stereo not shown) [Compound 92-1, RS- and SS-N-((2,6-diisopropylphenyl)carbamoyl)-4-methylbenzenesulfonimidamide, reference compound]
- IC50 ([1]; THP-1 pyroptosis): > 10000 nM

SMILES: Cc1oc(S(=O)(=O)NC(=O)Nc2c([C@H](C)C3CC3)ccc3c2CCC3)cc1C(C)(C)O [Compound 22, (R)-N-((5-(1-cyclopropylethyl)-2,3-dihydro-1H-inden-4-yl)carbamoyl)-4-(2-hydroxypropan-2-yl)-5-methylfuran-2-sulfonamide]
- IC50 [1, 6]: ≤ 100 nM

SMILES: C[C@H](c1cc(C#N)c2c(c1NC(=O)NS(=O)(=O)c1cc(C(C)(C)O)co1)CCC2)C1CC1 [Compound 47, (S)-N-((7-cyano-5-(1-cyclopropylethyl)-2,3-dihydro-1H-inden-4-yl)carbamoyl)-4-(2-hydroxypropan-2-yl)furan-2-sulfonamide]
- IC50 [1, 6]: 500 to 1000 nM

SMILES: CC(C)c1cccc([C@@H](C)C2CC2)c1NC(=O)NS(=N)(=O)c1cc(C(C)(C)O)co1 (mixture of isomers) [Compound 73-1, (RS, SC) and (SS, SC)-N-((2-(1-cyclopropylethyl)-6-isopropylphenyl)carbamoyl)-4-(2-hydroxypropan-2-yl)furan-2-sulfonimidamide]
- IC50 ([1]; THP-1 pyroptosis): ≤ 100 nM

SMILES: CC(c1ccc2c(c1NC(=O)NS(=N)(=O)c1cc(C(C)(C)O)co1)CCC2)C1CC1 (racemic) [Compound 8-2, (RS, SC)- and (SS, SC)-N-((5-(1-cyclopropylethyl)-2,3-dihydro-1H-inden-4-yl)carbamoyl)-4-(2-hydroxypropan-2-yl)furan-2-sulfonimidamide]
- IC50 ([1]; THP-1 pyroptosis): 500 to 1000 nM
- AUC [2, 4]: 2170 ng·h/mL
- Cl [2, 4]: 7.8 mL/min/kg
- Vss [2, 4]: 0.656 L/kg
- t1/2 [2, 4]: 2.0 h
- F % ([2]; SD rats): 66.7%
- AUC [2, 5]: 14484 ng·h/mL
- Cmax [2, 5]: 6190 ng/mL
- t1/2 [2, 5]: 3.4 h

SMILES: CC(c1cc(C#N)c2c(c1NC(=O)NS(=N)(=O)c1cc(C(C)(C)O)co1)CCC2)C1CC1 (racemic) [Compound 46-1, (RS, RC)- and (SS, RC)-N-((7-cyano-5-(1-cyclopropylethyl)-2,3-dihydro-1H-inden-4-yl)carbamoyl)-4-(2-hydroxypropan-2-yl)furan-2-sulfonimidamide]
- IC50 ([1]; THP-1 pyroptosis): 100 to 500 nM

SMILES: COc1cc(-c2cc(F)cc(C(C)C3CC3)c2NC(=O)NS(=O)(=O)c2cc(C(C)(C)O)co2)ccn1 (stereo not shown) [Compound 4, N-((2-(1-cyclopropylethyl)-4-fluoro-6-(2-methoxypyridin-4-yl)phenyl)carbamoyl)-4-(2-hydroxypropan-2-yl)furan-2-sulfonamide]
- IC50 [1, 6]: 100 to 500 nM

SMILES: [2H]c1cc([C@@H](C)C2CC2)c(NC(=O)NS(=N)(=O)c2cc(C(C)(C)O)co2)c2c1CCC2 (single isomer, unassigned) [Compound 32-1, (RS, SC)- and (SS, SC)-N-((5-(1-cyclopropylethyl)-2,3-dihydro-1H-inden-4-yl-7-d)carbamoyl)-4-(2-hydroxypropan-2-yl)furan-2-sulfonimidamide]
- IC50 ([1]; THP-1 pyroptosis): 1000 to 5000 nM

SMILES: Cc1oc(S(=N)(=O)NC(=O)Nc2c(C(C)C3CC3)ccc3c2CCC3)cc1C(C)(C)O (racemic) [Compound 25-2, (RS, SC)- and (SS, SC)-N-((5-(1-cyclopropylethyl)-2,3-dihydro-1H-inden-4-yl)carbamoyl)-4-(2-hydroxypropan-2-yl)-5-methylfuran-2-sulfonimidamide]
- IC50 ([1]; THP-1 pyroptosis): 100 to 500 nM

SMILES: C[C@@H](c1ccc2c(c1NC(=O)NS(=O)(=O)c1ccc(C3(O)CCOCC3)s1)CCC2)C1CC1 [Compound 68]
- IC50 [1, 6]: 100 to 500 nM

SMILES: CC(C)(O)c1coc(S(=N)(=O)NC(=O)Nc2c(CC3CCC3)ccc3c2CC3)c1 (single isomer, unassigned) [Compound 34-1, RS- and SS-N-((3-(cyclobutylmethyl)bicyclo[4.2.0]octa-1(6),2,4-trien-2-yl)carbamoyl)-4-(2-hydroxypropan-2-yl)furan-2-sulfonimidamide]
- IC50 ([1]; THP-1 pyroptosis): 5000 to 10000 nM
